Measurements: patent US20020086862A1, “Novel compounds” (AstraZeneca AB, priority 1998, published 2002)

SMILES	melting point [°C]
COC(=O)c1ccccc1-c1nn(Cc2ccccc2)c(=S)[nH]1 [Example 2, 2-[1,2-Dihydro-1-(phenylmethyl)-5-thioxo-3H-1,2,4-triazol-3-yl]benzoic acid, methyl ester]	129 to 130
COC(=O)c1ccc(-c2nn(Cc3ccccc3)c(=S)[nH]2)cc1 [Example 3, 4-[1,2-Dihydro-1-(phenylmethyl)-5-thioxo-3H-1,2,4-triazol-3-yl]benzoic acid, methyl ester]	> 215
S=c1[nH]c(-c2ccc(Cl)s2)nn1Cc1ccccc1 [Example 4, 5-(5-Chloro-2-thienyl)-1,2-dihydro-2-(phenylmethyl)-3H-1,2,4-triazole-3-thione]	79 to 80
S=c1[nH]c(-c2cccc(Cl)c2)nn1Cc1ccccc1 [Example 5, 5-(3-Chlorophenyl)-1,2-dihydro-2-(phenylmethyl)-3H-1,2,4-triazole-3-thione]	175 to 176
O=[N+]([O-])c1ccccc1-c1nn(Cc2ccccc2)c(=S)[nH]1 [Example 6, 1,2-Dihydro-5-(2-nitrophenyl)-2-(phenylmethyl)-3H-1,2,4-triazole-3-thione]	147 to 148
N#Cc1ccc(-c2nn(Cc3ccccc3)c(=S)[nH]2)cc1 [Example 7, 5-(4-Cyanophenyl)-1,2-dihydro-2-(phenylmethyl)-3H-1,2,4-triazole-3-thione]	237 to 238
S=c1[nH]c(-c2cccc(Cl)c2Cl)nn1Cc1ccccc1 [Example 8, 5-(2,3-Dichlorophenyl)-1,2-dihydro-2-(phenylmethyl)-3H-1,2,4-triazole-3-thione]	179 to 180
S=c1[nH]c(-c2ccccc2Br)nn1Cc1ccccc1 [Example 9, 5-(2-Bromophenyl)-1,2-dihydro-2-(phenylmethyl)-3H-1,2,4-triazole-3-thione]	139 to 140
FC(F)(F)c1cccc(-c2nn(Cc3ccccc3)c(=S)[nH]2)c1 [Example 10, 1,2-Dihydro-2-(phenylmethyl)-5-[3-(trifluoromethyl)phenyl]-3H-1,2,4-triazole-3-thione]	209 to 210
S=c1[nH]c(-c2ccco2)nn1Cc1ccccc1 [Example 11, 5-(2-Furanyl)-1,2-dihydro-2-(phenylmethyl)-3H-1,2,4-triazole-3-thione]	212 to 213
COc1ccc(Br)c(-c2nn(Cc3ccccc3)c(=S)[nH]2)c1 [Example 12, 5-(2-Bromo-5-methoxyphenyl)-1,2-dihydro-2-(phenylmethyl)-3H-1,2,4-triazole-3-thione]	154 to 155
S=c1[nH]c(-c2cc(Cl)sc2Cl)nn1Cc1ccccc1 [Example 13, 5-(2,5-Dichloro-3-thienyl)-1,2-dihydro-2-(phenylmethyl)-3H-1,2,4-triazole-3-thione]	160 to 162
S=c1[nH]c(-c2ccncc2)nn1Cc1ccccc1 [Example 14, 1,2-Dihydro-2-(phenylmethyl)-5-(4-pyridinyl)-3H-1,2,4-triazole-3-thione]	160 to 162
S=c1[nH]c(-c2ccc(-c3ccccc3)cc2)nn1Cc1ccccc1 [Example 15, 1,2-Dihydro-2-(phenylmethyl)-5-(4-phenylphenyl)-3H-1,2,4-triazole-3-thione]	249 to 250
S=c1[nH]c(-c2cccnc2Cl)nn1Cc1ccccc1 [Example 16, 5-(2-Chloro-3-pyridinyl)-1,2-dihydro-2-(phenylmethyl)-3H-1,2,4-triazole-3-thione]	155 to 156
Fc1ccccc1-c1nn(Cc2ccccc2)c(=S)[nH]1 [Example 17, 5-(2-Fluorophenyl)-1,2-dihydro-2-(phenylmethyl)-3H-1,2,4-triazole-3-thione]	180 to 183
COc1ccccc1-c1nn(Cc2ccccc2)c(=S)[nH]1 [Example 18, 1,2-Dihydro-5-(2-methoxyphenyl)-2-(phenylmethyl)-3H-1,2,4-triazole-3-thione]	142 to 143.5
Cc1ccccc1-c1nn(Cc2ccccc2)c(=S)[nH]1 [Example 19, 1,2-Dihydro-5-(2-methylphenyl)-2-(phenylmethyl)-3H-1,2,4-triazole-3-thione]	150 to 153
FC(F)(F)c1ccc(-c2nn(Cc3ccccc3)c(=S)[nH]2)cc1 [Example 21, 1,2-Dihydro-2-(phenylmethyl)-5-[4-(trifluoromethyl)phenyl]-3H-1,2,4-triazole-3-thione]	201 to 203
Fc1ccc(-c2nn(Cc3ccccc3)c(=S)[nH]2)c(Cl)c1 [Example 22, 5-(2-Chloro-4-fluorophenyl)-1,2-dihydro-2-(phenylmethyl)-3H-1,2,4-triazole-3-thione]	135 to 136
COc1ccc(-c2nn(Cc3ccccc3)c(=S)[nH]2)cc1 [Example 23, 1,2-Dihydro-5-(4-methoxyphenyl)-2-(phenylmethyl)-3H-1,2,4-triazole-3-thione]	235 to 237
Cc1ccc(-c2nn(Cc3ccccc3)c(=S)[nH]2)cc1 [Example 24, 1,2-Dihydro-5-(4-methylphenyl)-2-(phenylmethyl)-3H-1,2,4-triazole-3-thione]	234 to 235

SMILES	melting point [°C]
S=c1[nH]c(-c2ccc(Cl)c(Cl)c2)nn1Cc1ccccc1 [Example 25, 5-(3,4-Dichlorophenyl)-1,2-dihydro-2-(phenylmethyl)-3H-1,2,4-triazole-3-thione]	227 to 228
S=c1[nH]c(-c2ccc(Br)cc2)nn1Cc1ccccc1 [Example 26, 5-(4-Bromophenyl)-1,2-dihydro-2-(phenylmethyl)-3H-1,2,4-triazole-3-thione]	250 to 251
S=c1[nH]c(-c2ccc(Cl)cc2Cl)nn1Cc1ccccc1 [Example 27, 5-(2,4-Dichlorophenyl)-1,2-dihydro-2-(phenylmethyl)-3H-1,2,4-triazole-3-thione]	169 to 170
S=c1[nH]c(-c2cc(Cl)cc(Cl)c2)nn1Cc1ccccc1 [Example 29, 5-(3,5-Dichlorophenyl)-1,2-dihydro-2-(phenylmethyl)-3H-1,2,4-triazole-3-thione]	205 to 212
S=c1[nH]c(-c2cccc(Oc3ccccc3)c2)nn1Cc1ccccc1 [Example 30, 1,2-Dihydro-5-(3-phenoxyphenyl)-2-(phenylmethyl)-3H-1,2,4-triazole-3-thione]	200 to 202
S=c1[nH]c(-c2cccs2)nn1Cc1ccccc1 [Example 31, 1,2-Dihydro-2-(phenylmethyl)-5-(2-thienyl)-3H-1,2,4-triazole-3-thione]	230 to 231
S=c1[nH]c(-c2ccc(Cl)cc2Cl)nn1Cc1cccc(Cl)c1 [Example 32, 2-[(3-Chlorophenyl)methyl]-5-(2,4-dichlorophenyl)-1,2-dihydro-3H-1,2,4-triazole-3-thione]	190 to 191
COc1cccc(Cn2nc(-c3ccc(Cl)cc3Cl)[nH]c2=S)c1 [Example 33, 5-(2,4-Dichlorophenyl)-1,2-dihydro-2-[(3-methoxyphenyl)methyl]-3H-1,2,4-triazole-3-thione]	173 to 174
S=c1[nH]c(-c2ccc(Cl)cc2Cl)nn1Cc1cccc(Oc2ccccc2)c1 [Example 34, 5-(2,4-Dichlorophenyl)-1,2-dihydro-2-[(3-phenoxyphenyl)methyl]-3H-1,2,4-triazole-3-thione]	180 to 181
Oc1cccc(Cn2nc(-c3ccccc3)[nH]c2=S)c1 [Example 35, 1,2-Dihydro-2-[(3-hydroxyphenyl)methyl]-5-phenyl-3H-1,2,4-triazole-3-thione]	233 to 235
CSc1ccccc1-c1nn(Cc2ccccc2)c(=S)[nH]1 [Example 38, 1,2-Dihydro-5-[2-(methylthio)phenyl]-2-(phenylmethyl)-3H-1,2,4-triazole-3-thione]	170 to 171
S=c1[nH]c(-c2ccccc2Oc2ccccc2)nn1Cc1ccccc1 [Example 39, 1,2-Dihydro-5-[2-(phenoxy)phenyl]-2-(phenylmethyl)-3H-1,2,4-triazole-3-thione]	158 to 159
O=C(c1ccccc1)c1cccc(-c2nn(Cc3ccccc3)c(=S)[nH]2)c1 [Example 40, 1,2-Dihydro-5-(3-(phenylcarbonyl)phenyl)-2-(phenylmethyl)-3H-1,2,4-triazole-3-thione]	154 to 155
S=c1[nH]c(-c2ccc3ccccc3c2Br)nn1Cc1ccccc1 [Example 41, 1,2-Dihydro-5-(1-bromo-2-naphthalenyl)-2-(phenylmethyl)-3H-1,2,4-triazole-3-thione]	168 to 170
S=c1[nH]c(-c2ccccc2Cl)nn1Cc1cccc(Cl)c1 [Example 42, 5-(2-Chlorophenyl)-2-[(3-chlorophenyl)methyl]-1,2-dihydro-3H-1,2,4-triazole-3-thione]	143 to 143.5
Cc1cccc(Cn2nc(-c3ccc(Cl)cc3Cl)[nH]c2=S)c1 [Example 43, 5-(2,4-Dichlorophenyl)-1,2-dihydro-2-[(3-methylphenyl)methyl]-3H-1,2,4-triazole-3-thione]	177 to 178
S=c1[nH]c(-c2ccc(Cl)cc2Cl)nn1CCc1ccccc1 [Example 44, 5-(2,4-Dichlorophenyl)-1,2-dihydro-2-(2-phenylethyl)-3H-1,2,4-triazole-3-thione]	179 to 182
S=c1[nH]c(-c2ccc(Cl)cc2Cl)nn1Cc1ccc(Cl)cc1 [Example 45, 2-[(4-Chlorophenyl)methyl]-5-(2,4-dichlorophenyl)-1,2-dihydro-3H-1,2,4-triazole-3-thione]	205 to 206
S=c1[nH]c(-c2ccc(Br)cc2)nn1Cc1cccc(Cl)c1 [Example 46, 5-(4-Bromophenyl)-2-[(3-chlorophenyl)methyl]-1,2-dihydro-3H-1,2,4-triazole-3-thione]	242 to 243
Cc1ccc(-c2nn(Cc3cccc(Cl)c3)c(=S)[nH]2)cc1 [Example 47, 2-[(3-Chlorophenyl)methyl]-5-(4-methylphenyl)-1,2-dihydro-3H-1,2,4-triazole-3-thione]	207 to 208
COc1ccc(-c2nn(Cc3cccc(Cl)c3)c(=S)[nH]2)cc1 [Example 48, 2-[(3-Chlorophenyl)methyl]-5-(4-methoxyphenyl)-1,2-dihydro-3H-1,2,4-triazole-3-thione]	231 to 233
